Reference: US10738007B2, “Amide compounds as kinase inhibitors, compositions and methods of treatment” (TRANSLATIONAL DRUG DEVELOPMENT, LLC, priority 2016, dated 2020)
pIC50: −log10 of the molar value. Like-named read-outs stand apart in the source and are kept apart here.

Columns and labels:
MV411 cell line = assay: Cell viability assay ([…]-GLO), MV411; type: cell-based; conditions: for pIC50: MV411 (ITD-FLT3+), 72 hours treatment; for FLT3-ITD+ Selectivity (K562/MV411): ratio K562/MV411
ROCK1 = ROCK1 (Homo sapiens (Human), UniProt Q13464); assay: ROCK1 kinase inhibition assay (peptide phosphorylation, LABCHIP 3000); type: biochemical; conditions: 5 μM ATP, 3 nM ROCK1, 3 hours at 25° C.
Chain of ROCK1 (Q13464 whole entry, species assumed): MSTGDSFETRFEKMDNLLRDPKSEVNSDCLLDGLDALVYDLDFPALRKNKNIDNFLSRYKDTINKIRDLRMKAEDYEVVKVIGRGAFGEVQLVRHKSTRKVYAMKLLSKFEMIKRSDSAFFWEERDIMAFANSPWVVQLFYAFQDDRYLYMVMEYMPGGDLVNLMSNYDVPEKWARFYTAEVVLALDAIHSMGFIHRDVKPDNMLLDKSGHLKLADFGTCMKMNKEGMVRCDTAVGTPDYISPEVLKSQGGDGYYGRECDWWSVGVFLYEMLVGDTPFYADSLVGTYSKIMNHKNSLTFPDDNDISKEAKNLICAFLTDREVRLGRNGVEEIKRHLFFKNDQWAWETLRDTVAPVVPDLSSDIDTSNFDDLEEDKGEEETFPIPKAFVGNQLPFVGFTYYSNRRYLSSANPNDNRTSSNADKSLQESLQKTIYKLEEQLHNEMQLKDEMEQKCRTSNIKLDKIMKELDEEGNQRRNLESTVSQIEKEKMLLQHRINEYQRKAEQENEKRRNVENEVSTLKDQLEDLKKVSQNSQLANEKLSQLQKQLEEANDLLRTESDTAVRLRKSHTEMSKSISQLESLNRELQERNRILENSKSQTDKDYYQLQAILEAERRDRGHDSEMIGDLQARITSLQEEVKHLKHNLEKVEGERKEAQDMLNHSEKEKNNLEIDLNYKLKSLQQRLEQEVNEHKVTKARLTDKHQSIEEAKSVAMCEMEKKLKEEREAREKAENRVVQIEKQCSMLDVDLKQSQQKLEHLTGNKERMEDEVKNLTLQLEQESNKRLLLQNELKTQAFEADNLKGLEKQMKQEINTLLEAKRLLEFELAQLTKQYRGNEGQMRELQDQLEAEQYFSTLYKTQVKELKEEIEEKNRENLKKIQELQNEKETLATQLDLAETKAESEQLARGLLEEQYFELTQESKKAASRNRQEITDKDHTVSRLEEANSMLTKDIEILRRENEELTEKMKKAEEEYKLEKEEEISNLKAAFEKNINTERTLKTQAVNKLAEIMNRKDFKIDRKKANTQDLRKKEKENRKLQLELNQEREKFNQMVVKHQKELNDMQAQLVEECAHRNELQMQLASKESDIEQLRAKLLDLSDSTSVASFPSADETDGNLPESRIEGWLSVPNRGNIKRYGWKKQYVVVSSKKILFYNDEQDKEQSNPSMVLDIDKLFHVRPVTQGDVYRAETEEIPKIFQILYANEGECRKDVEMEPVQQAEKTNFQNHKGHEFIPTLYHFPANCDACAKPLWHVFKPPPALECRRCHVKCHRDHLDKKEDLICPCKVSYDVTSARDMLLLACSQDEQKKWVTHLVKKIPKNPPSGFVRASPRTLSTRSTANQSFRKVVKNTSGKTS
Experimental: (§1) The peptide is phosphorylated by the protein kinase ROCK1 or ROCK2. The ROCK1 or ROCK2 enzyme, substrate, and cofactors (ATP and Mg^2+) are combined in a well of a microtiter plate and incubated for 3 hours at 25° C. in the presence or absence of an inhibitor compound. At the end of the incubation, the reaction is quenched by the addition of an EDTA-containing buffer. The substrate and product are separated and quantified electrophoretically using the microfluidic-based LABCHIP® 3000 Drug Discovery System from Caliper Life Sciences (Hopkinton, Mass.).
(§2) The components of the assay mixture are:
10 μM Sodium Orthovanadate
10 LM Beta-Glycerophosphate
(§3) 5 μM ATP (for ROCK1) or 7 μM ATP (for ROCK2)
3 nM ROCK1 or 2.5 nM ROCK2 enzyme
(§4) Substrate and product peptides present in each sample are separated electrophoretically using the LABCHIP® 3000 capillary electrophoresis instrument. […] Change in the relative fluorescence intensity of the substrate and product peaks is the parameter measured reflecting enzyme activity. Capillary electrophoregramms (RDA acquisition files) are analyzed using HTS Well Analyzer software (Caliper Life Sciences, Hopkinton, Mass.). The kinase activity in each sample is determined as the product to sum ratio (PSR): P/(S+P), where P is the peak height of the product peptide and S is the peak height of the substrate peptide. For each compound, enzyme activity is measured at various concentrations (12 concentrations of compound spaced by 3× dilution intervals). Negative control samples (0%-inhibition in the absence of inhibitor) and positive control samples (100%-inhibition in the presence of 20 mM EDTA) are assembled in replicates of four and are used to calculate %-inhibition values for each compound at each concentration. Percent inhibition (Pinh) is determined using the following equation: Pinh=(PSRO %−PSRinh)/(PSRO %−PSR100%)*100
(§5) where PSRinh is the product sum ratio in the presence of inhibitor, PSRO % is the average product sum ratio in the absence of inhibitor, and PSR100% is the average product sum ratio in 100%-inhibition control samples. The IC50 values of inhibitors are determined by fitting the inhibition curves (Pinh versus inhibitor concentration) by the 4-parameter sigmoidal dose-response model using XLfit 4 software (IBDS).

K562 cell line = assay: Cell viability assay ([…]-GLO), K562; type: cell-based; conditions: K562 (does not express ITD-FLT3), 72 hours treatment
Experimental: Cell viability in the presence of varying concentrations of the above listed compounds at different time points was used to assess cytotoxicity and the effect of the compounds on cell proliferation.
Cell viability was measured by the […]-GlO® cell viability assay from Promega (Madison, Wis.). The […]-GlO Luminescent Cell Viability Assay is a homogeneous method to determine the number of viable cells in culture based on quantitation of the ATP present, which signals the presence of metabolically active cells. Following treatment, […]-GlO® is added to treatment wells and incubated at 37° C. Luminescence values were measured at using a Molecular Devices Spectramax microplate reader.
Cells were grown to 70% confluency, trypsinized, counted, and seeded in 96 well flat-bottom plates at a final concentration of 2.5×10^3-5×10^3 cells/well (Day 0). Cells were allowed to incubate in growth media for 24 hours. Treatment with the test agents or standard agents began on Day 1 and continued for 72 hours. At the 72-hour time point, treatment containing media was removed. Viable cell numbers were quantified by the […]-GLO® cell viability assay as described above. Results from these studies were used to calculate an IC50 value (concentration of drug that inhibits cell growth by 50 percent of control) for each compound.
For single agent and combination studies, data from each experiment was collected and expressed as % Cell Growth using the following calculation: % Cell Growth=(ftest/fvehicle)×100
Where ftest is the luminescence of the tested sample, and fvehicle is the luminescence of the vehicle in which the drug is dissolved. Dose response graphs and IC50 values were generated using Prism 6 software (GraphPad) using the following equation: Y=(Top−Bottom)/(1+10^((logIC50-X)−HillSlope))
Where X is the logarithm of the concentration and Y is the response. Y starts at the Bottom and goes to the Top with a sigmoid shape.
The experiments also evaluated the selectivity of the compounds for inhibiting growth of cancer cells carrying a mutation in the Flt3 gene. The MV411 cell line expresses the mutant allele of Flt3 with internal tandem duplications (ITD) of the gene. See Quentmeier et al., “FLT3 Mutations in Acute Myeloid Leukemia Cell Lines,” Leukemia 17(1), 2003, 120-124. […] See Grafone et al., “Monitoring of FLT3 Phosphorylation Status and Its Response to Drugs By Flow Cytometry in AML Blast Cells,” Hematol Oncol. 26(3), 2008, 159-166.

ROCK2 = ROCK2 (Homo sapiens (Human), UniProt O75116); assay: ROCK2 kinase inhibition assay (peptide phosphorylation, LABCHIP 3000); type: biochemical; conditions: 7 μM ATP, 2.5 nM ROCK2, 3 hours at 25° C.
Chain of ROCK2 (O75116 whole entry, species assumed): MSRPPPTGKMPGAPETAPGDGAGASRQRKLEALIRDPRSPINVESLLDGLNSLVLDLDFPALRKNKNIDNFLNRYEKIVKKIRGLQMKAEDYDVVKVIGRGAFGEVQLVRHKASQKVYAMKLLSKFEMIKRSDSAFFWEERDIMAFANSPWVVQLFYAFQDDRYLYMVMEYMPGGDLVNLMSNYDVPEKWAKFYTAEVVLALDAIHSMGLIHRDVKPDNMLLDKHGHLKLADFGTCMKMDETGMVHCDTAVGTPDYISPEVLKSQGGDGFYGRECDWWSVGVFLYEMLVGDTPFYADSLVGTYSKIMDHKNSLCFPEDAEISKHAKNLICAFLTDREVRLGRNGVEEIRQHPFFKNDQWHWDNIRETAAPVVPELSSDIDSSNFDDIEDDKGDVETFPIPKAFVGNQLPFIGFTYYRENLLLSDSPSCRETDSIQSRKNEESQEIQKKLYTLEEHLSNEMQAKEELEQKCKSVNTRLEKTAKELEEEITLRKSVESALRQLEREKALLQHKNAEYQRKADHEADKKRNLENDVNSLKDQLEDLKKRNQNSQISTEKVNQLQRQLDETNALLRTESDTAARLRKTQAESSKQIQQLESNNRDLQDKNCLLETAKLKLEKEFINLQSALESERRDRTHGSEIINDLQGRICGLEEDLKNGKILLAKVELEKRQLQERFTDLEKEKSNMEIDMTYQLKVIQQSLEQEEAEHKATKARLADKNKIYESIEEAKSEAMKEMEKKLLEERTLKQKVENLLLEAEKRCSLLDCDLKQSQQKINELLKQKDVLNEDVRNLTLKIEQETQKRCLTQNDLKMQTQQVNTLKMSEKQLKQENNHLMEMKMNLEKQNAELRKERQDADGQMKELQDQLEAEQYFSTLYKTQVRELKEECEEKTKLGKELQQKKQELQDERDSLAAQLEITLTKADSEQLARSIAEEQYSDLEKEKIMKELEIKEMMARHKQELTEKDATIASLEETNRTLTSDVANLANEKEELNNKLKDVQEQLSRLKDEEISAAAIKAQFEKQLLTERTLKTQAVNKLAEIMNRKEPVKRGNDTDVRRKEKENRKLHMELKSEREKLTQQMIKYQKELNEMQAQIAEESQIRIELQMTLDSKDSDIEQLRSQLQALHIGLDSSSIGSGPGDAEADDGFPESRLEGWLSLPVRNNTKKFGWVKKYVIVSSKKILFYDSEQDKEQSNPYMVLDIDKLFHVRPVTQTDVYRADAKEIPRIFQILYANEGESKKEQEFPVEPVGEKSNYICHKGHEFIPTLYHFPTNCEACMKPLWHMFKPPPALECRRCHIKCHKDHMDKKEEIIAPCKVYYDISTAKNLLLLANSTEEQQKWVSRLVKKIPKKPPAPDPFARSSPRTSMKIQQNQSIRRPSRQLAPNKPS
Experimental: as §1, §2
10 μM Sodium Orthovanadate
10 LM Beta-Glycerophosphate
as §3
3 nM ROCK1 or 2.5 nM ROCK2 enzyme
as §4, §5

[1] = Pharmacokinetic activity in mice; type: in vivo; conditions: for AUC(0-t): read-out: AUC0-8; for Vd: read-out: Vss
Experimental: Compounds were individually and accurately weighed out to produce a stock solution in Dimethyl-sulfoxide (DMSO) at a concentration of 2 mg/mL and stored at −20° C. From the stock solution, a working stock was prepared by diluting it in Methanol-Water 50:50 (v/v) at 20 μg/mL for calibration curve preparation and stored at 4° C. Standards used for quantitation and quality control samples (QCs) were prepared on the same day of sample processing using blank plasma obtained from non-treated mice. For each analyte, standards were prepared through serial dilutions of the working stock at concentrations of 0.1, 0.5, 1.0, 10, 50, 100, 500, and 1000 ng/mL; QCs were prepared at intermediate concentrations of 0.75, 7.5, 75, and 750 ng/mL. Plasma samples were stored at −80° C. until ready for analysis and then placed on ice for thawing. An aliquot of […] samples, standards, or QCs, were transferred into a 96-well extraction plate according to a pre-defined layout. An appropriate volume of Methanol-Formic Acid 99.9-0.1 containing internal standard (Verapamil at 25 ng/mL) was added to each well and the samples were extracted under vacuum. Eluent was then transferred into a LCMS plate for analysis using a suitable column for separation and MRM detection. Concentration of analytes was calculated based on the calibration curve and analyzed for pharmacokinetic parameters by using Non-compartmental analysis (NCA). Parameters such as Cmax, Tmax, half-life, AUC(0-last), AUC(0-∞), volume of distribution (Vss), and clearance (Cl/F) were reported.

Row | Structure (SMILES) | pIC50 (MV411 cell line; Homo sapiens, MV4-11) | FLT3-ITD+ Selectivity (K562/MV411) (MV411 cell line) | pIC50 (ROCK1) | pIC50 (K562 cell line; Homo sapiens) | pIC50 (ROCK2) | also measured
1 | O=C(NC1CCN(CC(F)(F)F)CC1)c1cccc([C@@H](CO)NC(=O)c2ccc(-c3ccncc3)cc2)c1 [Compound 79] | 7.52 | >3333 | 8.72 | < 4.00 | 9.17 | 
2 | CN1CCn2nc(NC(=O)c3cccc(CNC(=O)c4ccc(-c5ccncc5)cc4)c3)cc2C1 [Compound 1] | 5.05 | >11 | 7.94 | < 4.00 | 8.22 | 
3 | COC(=O)N1CCC(CNC(=O)c2cccc([C@@H](CO)NC(=O)c3ccc(-c4ccncc4)cc3)c2)CC1 [Compound 78] | 7.52 | >3333 | 8.77 | < 4.00 | 9.24 | 
4 | CN1CCc2ccc(NC(=O)c3cccc([C@@H](CO)NC(=O)c4ccc(-c5ccncc5)cc4)c3)cc2C1 [Compound 7] | 7.22 | 333 |  | 4.69 | 8.82 | AUC % Extrap ([1]; IV - 1 mg/kg): 3.29%; Cl/F obs ([1]; IV - 1 mg/kg): 4.12 L/h/kg; R-sq ([1]; IV - 1 mg/kg): 0.88; R-sq ([1]; PO - 5 mg/kg): 0.47; AUC(0-inf) ([1]; mouse, plasma, IV - 1 mg/kg): 243 ng·h/mL; C0 ([1]; mouse, plasma, IV - 1 mg/kg): 411 ng/mL; Cmax ([1]; mouse, plasma, IV - 1 mg/kg): 190 ng/mL; Tmax ([1]; mouse, plasma, IV - 1 mg/kg): 15 min; half-life ([1]; mouse, plasma, IV - 1 mg/kg): 386 min; AUC(0-t) ([1]; mouse, plasma, IV - 1 mg/kg): 235 ng·h/mL; Vd ([1]; mouse, plasma, IV - 1 mg/kg): 16.3 L/kg; Cmax ([1]; mouse, plasma, PO - 5 mg/kg): 5.3 ng/mL; Tmax ([1]; mouse, plasma, PO - 5 mg/kg): 60 min; AUC(0-t) ([1]; mouse, plasma, PO - 5 mg/kg): 81.6 ng·h/mL
5 | CN1CCc2ccc(NC(=O)c3cccc(C(CO)NC(=O)c4ccc(-c5ccncc5)cc4)c3)cc2C1 (centres unmarked) [Compound 2] |  |  | 8.55 |  | 8.55 | 
6 | CCN(CC)C1CCC(NC(=O)c2cccc([C@@H](CO)NC(=O)c3ccc(-c4ccncc4)cc3)c2)CC1 (some centres unmarked) [Compound 35] |  |  | 8.80 |  | 8.92 | 
7 | C[C@@H](NC(=O)c1ccc(-c2ccncc2)cc1)c1cccc(C(=O)NC2CCCC2)c1 [Compound 36] |  |  |  |  |  | AUC % Extrap ([1]; IV - 1 mg/kg): 0.35%; Cl/F obs ([1]; IV - 1 mg/kg): 0.16 L/h/kg; R-sq ([1]; IV - 1 mg/kg): 0.72; AUC % Extrap ([1]; PO - 5 mg/kg): 0.33%; R-sq ([1]; PO - 5 mg/kg): 1.00; AUC(0-inf) ([1]; mouse, plasma, IV - 1 mg/kg): 6070 ng·h/mL; C0 ([1]; mouse, plasma, IV - 1 mg/kg): 5910 ng/mL; Cmax ([1]; mouse, plasma, IV - 1 mg/kg): 4340 ng/mL; Tmax ([1]; mouse, plasma, IV - 1 mg/kg): 15 min; half-life ([1]; mouse, plasma, IV - 1 mg/kg): 155 min; AUC(0-t) ([1]; mouse, plasma, IV - 1 mg/kg): 5850 ng·h/mL; Vd ([1]; mouse, plasma, IV - 1 mg/kg): 0.27 L/kg; AUC(0-inf) ([1]; mouse, plasma, PO - 5 mg/kg): 10500 ng·h/mL; CL/F ([1]; mouse, plasma, PO - 5 mg/kg): 8 mL/min/kg; Cmax ([1]; mouse, plasma, PO - 5 mg/kg): 2500 ng/mL; Tmax ([1]; mouse, plasma, PO - 5 mg/kg): 60 min; half-life ([1]; mouse, plasma, PO - 5 mg/kg): 178 min; bioavailability ([1]; mouse, plasma, PO - 5 mg/kg vs IV - 1 mg/kg): 34.6%; AUC(0-t) ([1]; mouse, plasma, PO - 5 mg/kg): 8890 ng·h/mL; Vd/F ([1]; mouse, plasma, PO - 5 mg/kg, read-out: Vz/F obs): 2.04 L/kg
8 | CN(C)c1cccc(CNC(=O)c2cccc([C@@H](CO)NC(=O)c3ccc(-c4ccncc4)cc3)c2)c1 [Compound 31] |  |  | 8.68 |  | 9.00 | 
9 | CN(C)c1ccc(CNC(=O)c2cccc([C@@H](CO)NC(=O)c3ccc(-c4ccncc4)cc3)c2)cc1 [Compound 30] |  |  | 8.54 |  | 8.82 | 
10 | CC1(NC(=O)c2cccc([C@@H](CO)NC(=O)c3ccc(-c4ccncc4)cc3)c2)CCC1 [Compound 71] | 6.04 | 37 |  | 4.47 | 8.05 | 
11 | O=C(NC1CCCC1)c1cccc([C@@H](CO)NC(=O)c2ccc(-c3ccncc3)cc2F)c1 [Compound 86] | 5.77 | >58 |  | < 4.00 | 8.57 | 
12 | O=C(NC1CCCC1)c1cccc([C@@H](CO)NC(=O)c2cc(-c3ccncc3)n[nH]2)c1 [Compound 61] | 5.60 | >40 |  | < 4.00 | 8.67 | 
13 | O=C(NCC1CCCC1)c1cccc([C@@H](CO)NC(=O)c2ccc(-c3ccncc3)cc2)c1 [Compound 89] | 6.55 | 236 |  | 4.18 | 9.14 | 
14 | COc1ccc(NC(=O)c2cccc([C@@H](CO)NC(=O)c3ccc(-c4ccncc4)cc3)c2)cn1 [Compound 80] |  |  | 8.77 |  |  | 
15 | COC1(CNC(=O)c2cccc([C@@H](CO)NC(=O)c3ccc(-c4ccncc4)cc3)c2)CCC1 [Compound 73] | 7.10 | 337 |  | 4.57 | 9.22 | 
16 | O=C(Nc1ccccc1)c1cccc([C@@H](CO)NC(=O)c2ccc(-c3ccncc3)cc2)c1 [Compound 9] | 6.10 | 47 |  | 4.46 | 8.77 | 
17 | CN(C)CCNC(=O)COc1cccc(CNC(=O)c2ccc(-c3ccncc3)cc2)c1 [Compound 4] |  |  | 7.25 |  | 7.72 | 
18 | CN(C)CC1(NC(=O)c2cccc([C@@H](CO)NC(=O)c3ccc(-c4ccncc4)cc3)c2)CCCC1 [Compound 74] | 5.04 | 8 |  | 4.13 | 7.57 | 
19 | COC(=O)N1CCC(NC(=O)c2cccc([C@@H](CO)NC(=O)c3ccc(-c4ccncc4)cc3)c2)CC1 [Compound 90] |  | >5050 |  |  | 9.19 | pIC50 (MV411 cell line): 7.70; pIC50 (K562 cell line): < 4.00
20 | COc1ccc(NC(=O)c2cccc([C@@H](CO)NC(=O)c3ccc(-c4ccncc4)cc3)c2)cn1 [Compound 93] | 7.05 | 935 |  | 4.07 | 9.29 | 
21 | CNC(=O)c1cccc([C@@H](CO)NC(=O)c2ccc(-c3ccncc3)cc2)c1 [Compound 11] | 4.91 | >8 |  | < 4.00 | 8.57 | 
